Results on 6 compounds are retold here after patent US11639343B2, “Compounds targeting and degrading BCR-ABL protein and its antitumor application” (ShanghaiTech University, priority 2019, dated 2023).

In general, DC50 refers to the concentration at which degradation of the target reaches its halfway point. As a reminder, the IC50 is the concentration that gives 50% inhibition.

One assay deals with BCR-ABL protein (Homo sapiens, UniProt P00519). In words: Western blot degradation of BCR-ABL in K562 cells. To be noted: 16 hours; for DC50: 1 nM-10 μM. The arrangement: Western blot was used to detect the expression of BCR-ABL and c-ABL protein in K562 cells; BCR (fusion partner, P11274); endogenous in cells; host or cells: K562; the other entry of the earlier key: BCR (P11274, Breakpoint cluster region protein). The format is cell-based. As for the experimental part: (§1) (1) Cell seed: K562 cells were added to the 24 well plates, with a cell density of 3×10^5/ml and a total volume of 1.5 ml; Five concentration gradients, 1 nm, 10 nm, 100 nm, 1 μM, and 10 μM, were respectively set for PROTAD series compounds and comparative examples compounds (Dasa-6-2-2-6-VHL, Dasa-6-2-6-CRBN). […] After 16 hours of drug treatment, the cells were collected in 1.5 ml ep tube, centrifuged at 3000 rpm for 3 minutes, and then added 30 μL PBS and 30 ul 2×SDS to cell precipitated, lysate Heat at 100° C. for 5 minutes, then place on ice for 5 minutes, centrifuged at 10000 rpm for 5 minutes, and take the supernatant as the total protein extracted. The protein concentration was determined by the Bradford method. After each sample was at the same concentration, bromophenol blue was added as the sample indicator.
Sequence of BCR-ABL protein (P00519 with tags, fused parts or gaps): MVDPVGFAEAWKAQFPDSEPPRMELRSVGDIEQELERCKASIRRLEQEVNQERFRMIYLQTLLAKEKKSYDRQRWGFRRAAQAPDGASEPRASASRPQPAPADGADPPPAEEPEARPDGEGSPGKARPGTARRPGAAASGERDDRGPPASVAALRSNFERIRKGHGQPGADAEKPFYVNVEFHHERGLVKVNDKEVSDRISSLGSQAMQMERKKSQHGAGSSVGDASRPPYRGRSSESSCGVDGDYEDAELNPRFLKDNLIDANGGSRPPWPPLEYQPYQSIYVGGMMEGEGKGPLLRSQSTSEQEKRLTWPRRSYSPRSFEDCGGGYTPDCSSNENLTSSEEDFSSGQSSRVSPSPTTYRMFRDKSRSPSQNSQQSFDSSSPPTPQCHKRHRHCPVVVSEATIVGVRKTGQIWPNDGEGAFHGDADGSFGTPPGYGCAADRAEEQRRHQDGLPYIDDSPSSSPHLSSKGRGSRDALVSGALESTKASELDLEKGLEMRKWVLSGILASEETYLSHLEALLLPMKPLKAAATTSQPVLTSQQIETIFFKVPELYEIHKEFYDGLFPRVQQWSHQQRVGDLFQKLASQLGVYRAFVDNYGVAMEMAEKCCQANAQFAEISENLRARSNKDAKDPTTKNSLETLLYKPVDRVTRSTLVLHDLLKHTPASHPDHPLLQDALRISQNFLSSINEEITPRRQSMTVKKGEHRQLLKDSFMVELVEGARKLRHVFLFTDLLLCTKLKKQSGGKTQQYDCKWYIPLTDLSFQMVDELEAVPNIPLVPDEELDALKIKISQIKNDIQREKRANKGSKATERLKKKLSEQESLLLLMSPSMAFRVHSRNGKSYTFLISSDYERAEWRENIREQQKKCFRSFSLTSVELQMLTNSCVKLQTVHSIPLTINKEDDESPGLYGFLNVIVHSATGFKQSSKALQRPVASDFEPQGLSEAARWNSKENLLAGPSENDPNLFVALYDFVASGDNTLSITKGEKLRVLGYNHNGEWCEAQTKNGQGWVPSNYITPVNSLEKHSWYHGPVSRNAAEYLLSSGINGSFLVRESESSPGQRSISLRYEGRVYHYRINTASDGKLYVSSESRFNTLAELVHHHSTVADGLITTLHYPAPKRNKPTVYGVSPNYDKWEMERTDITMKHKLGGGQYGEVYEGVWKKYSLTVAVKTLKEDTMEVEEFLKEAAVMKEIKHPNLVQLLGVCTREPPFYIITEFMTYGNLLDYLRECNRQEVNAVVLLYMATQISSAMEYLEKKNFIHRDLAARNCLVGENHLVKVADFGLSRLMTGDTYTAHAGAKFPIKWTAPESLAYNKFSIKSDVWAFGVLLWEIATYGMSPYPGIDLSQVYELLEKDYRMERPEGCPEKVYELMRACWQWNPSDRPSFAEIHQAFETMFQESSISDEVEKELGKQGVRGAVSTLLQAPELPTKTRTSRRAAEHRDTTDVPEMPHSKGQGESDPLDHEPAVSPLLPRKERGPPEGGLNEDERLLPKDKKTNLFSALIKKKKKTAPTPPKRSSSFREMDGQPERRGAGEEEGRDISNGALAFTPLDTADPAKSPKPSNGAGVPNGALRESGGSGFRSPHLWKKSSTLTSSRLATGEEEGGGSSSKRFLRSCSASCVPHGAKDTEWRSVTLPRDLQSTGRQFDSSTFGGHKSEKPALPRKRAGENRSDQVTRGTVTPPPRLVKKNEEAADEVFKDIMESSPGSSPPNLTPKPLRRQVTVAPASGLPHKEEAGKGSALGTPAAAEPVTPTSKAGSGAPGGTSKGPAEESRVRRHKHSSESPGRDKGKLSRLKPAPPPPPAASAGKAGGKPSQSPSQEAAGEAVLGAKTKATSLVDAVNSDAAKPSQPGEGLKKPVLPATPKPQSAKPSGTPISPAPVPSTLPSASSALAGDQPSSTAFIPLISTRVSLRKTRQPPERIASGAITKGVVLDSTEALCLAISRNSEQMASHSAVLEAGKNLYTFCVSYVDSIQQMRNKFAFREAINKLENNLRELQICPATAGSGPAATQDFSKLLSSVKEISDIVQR
(§2) (2) Electrophoresis: the starting voltage of the BioRad electrophoresis instrument was 80V, and as the dye enters the separation gel, the voltage was adjusted to 120V;
(§3) (3) Film transfer: prepare filter paper and nitrocellulose membrane with the corresponding size of the gel, filter paper, and NC film were soaked in transfer electrophoresis buffer.
(§4) DC50 (concentration required to degrade protein by half) were calculated based on the intensity from western blot, and data were analyzed via Prism GraphPad with non-linear regression.
(In general: In western blotting, separated proteins are transferred to a membrane and probed.)

For a further assay, the target named is c-ABL protein (Homo sapiens, UniProt P00519). In words: Western blot degradation of c-ABL in K562 cells. Type of assay: cell-based. The arrangement: Western blot was used to detect the expression of BCR-ABL and c-ABL protein in K562 cells; endogenous in cells; host or cells: K562. To be noted: 16 hours, 1 nM-10 μM. The method, then:
as §1, §2, §3, §4

For the next assay, the system named is HEK293 (BCR-ABL-) cells. In words: CCK-8 proliferation inhibition, HEK293 cells.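 Also: Ten-point threefold dilution series starting at 10 µM, CCK-8 absorbance at 450 nm read after 2 h reagent incubation, DMSO-treated cells as negative control.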 To be noted: Homo sapiens, HEK293, 48 h, read-out: Proliferative inhibitory activity (IC50, nM) HEK293 (BCR-ABL-).
The subject of the next assay is U937 (BCR-ABL-) cells. In words: CCK-8 proliferation inhibition, U937 cells.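 Also: Ten-point threefold dilution series, absorbance at 450 nm after 2 h with CCK-8 reagent, DMSO as negative control.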 The format is cell-based, human. To be noted: Homo sapiens, U-937; CCK-8, 48 hours of drug treatment, highest concentration 10 μM; read-out: Proliferative inhibitory activity (IC50, nM) U937 (BCR-ABL-).
Another assay concerns K562 (BCR-ABL+) cells. In words: CCK-8 proliferation inhibition, K562 cells.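 Also: Ten-point threefold dilution series starting at 10 µM, absorbance at 450 nm after 2 h with CCK-8, DMSO as negative control.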 Type of assay: cell-based, human. To be noted: Homo sapiens, K562, 48 h, CCK-8, 48 hours of drug treatment; read-out: Proliferative inhibitory activity (IC50, nM) K562 (BCR-ABL+).

Sequence of c-ABL protein (P00519 whole entry): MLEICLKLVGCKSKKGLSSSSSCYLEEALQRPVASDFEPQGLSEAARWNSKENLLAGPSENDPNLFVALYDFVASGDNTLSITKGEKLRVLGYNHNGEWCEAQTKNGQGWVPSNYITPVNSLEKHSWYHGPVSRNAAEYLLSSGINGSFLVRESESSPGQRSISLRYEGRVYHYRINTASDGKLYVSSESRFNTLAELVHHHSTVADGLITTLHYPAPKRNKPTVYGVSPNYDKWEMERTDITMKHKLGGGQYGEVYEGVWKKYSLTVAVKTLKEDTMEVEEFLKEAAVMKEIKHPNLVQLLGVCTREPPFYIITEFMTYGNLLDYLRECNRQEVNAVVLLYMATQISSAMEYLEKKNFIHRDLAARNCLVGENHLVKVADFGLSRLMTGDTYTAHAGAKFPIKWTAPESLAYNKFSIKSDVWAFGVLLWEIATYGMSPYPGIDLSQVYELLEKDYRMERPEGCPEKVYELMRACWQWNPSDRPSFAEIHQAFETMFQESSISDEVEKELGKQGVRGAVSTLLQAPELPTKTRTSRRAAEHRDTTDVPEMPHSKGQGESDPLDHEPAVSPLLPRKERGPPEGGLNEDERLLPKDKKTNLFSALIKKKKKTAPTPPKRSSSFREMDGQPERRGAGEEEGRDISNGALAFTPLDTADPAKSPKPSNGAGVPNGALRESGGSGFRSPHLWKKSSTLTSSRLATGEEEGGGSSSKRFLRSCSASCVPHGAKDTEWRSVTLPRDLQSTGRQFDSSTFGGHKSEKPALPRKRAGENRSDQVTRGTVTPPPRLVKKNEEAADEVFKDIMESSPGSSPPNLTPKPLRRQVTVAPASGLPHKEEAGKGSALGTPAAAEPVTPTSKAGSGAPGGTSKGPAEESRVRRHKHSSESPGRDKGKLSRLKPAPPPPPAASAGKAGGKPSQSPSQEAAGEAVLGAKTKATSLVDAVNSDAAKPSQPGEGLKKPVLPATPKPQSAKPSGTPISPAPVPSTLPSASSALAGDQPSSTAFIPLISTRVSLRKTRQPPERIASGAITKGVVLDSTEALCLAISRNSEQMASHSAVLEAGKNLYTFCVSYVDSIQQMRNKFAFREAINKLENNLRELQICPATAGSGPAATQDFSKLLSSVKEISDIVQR

Turning to `Cc1nc(Nc2ncc(C(=O)Nc3c(C)cccc3Cl)s2)cc(N2CCN(CCCCCCOCCOCCOCCCCCC(=O)N[C@H](C(=O)N3C[C@H](O)C[C@H]3C(=O)NCc3ccc(-c4scnc4C)cc3)C(C)(C)C)CC2)n1` [Dasa-6-2-2-6-vhl, N-(2-chloro-6-methylphenyl)-2-((6-(4-((S)-3-((2S,4R)-4-hydroxy-2-((4-(4-methylthiazol-5-yl)benzyl)carbamoyl)pyrrolidine-1-carbonyl)-2,2-dimethyl-5-oxo-11,14,17-trioxa-4-azatricosan-23-yl)piperazin-1-yl)-2-methylpyrimidin-4-yl)amino)thiazole-5-carboxamide, reference compound], the “degradation of BCR-ABL protein (in words)” value at BCR-ABL protein was “cannot degrade BCR-ABL protein”.

As for `Cc1ccc(NC(=O)c2ccc(CN3CCN(C(=O)CCCCCCC(=O)N[C@H](C(=O)N4C[C@H](O)C[C@H]4C(=O)NCc4ccc(-c5scnc5C)cc4)C(C)(C)C)CC3)cc2)cc1Nc1nccc(-c2cccnc2)n1` [SIAIS074031, (2S,4R)-1-((S)-3,3-dimethyl-2-(8-(4-(4-((4-methyl-3-((4-(pyridin-3-yl)pyrimidin-2-yl)amino)phenyl)carbamoyl)benzyl)piperazin-1-yl)-8-oxooctanamido)butanoyl)-4-hydroxy-N-(4-(4-methylthiazol-5-yl)benzyl)pyrrolidine-2-carboxamide], the DC50 on BCR-ABL protein and at c-ABL protein was 100 to 1000 nM each time.

In the case of `Cc1nc(Nc2ncc(C(=O)Nc3c(C)cccc3Cl)s2)cc(N2CCN(C(=O)CCOCCNc3cccc4c3C(=O)N(C3CCC(=O)NC3=O)C4=O)CC2)n1` (centres unmarked) [SIAIS151063, N-(2-chloro-6-methylphenyl)-2-((6-(4-(3-(2-((2-(2,6-dioxopiperidin-3-yl)-1,3-dioxoisoindolin-4-yl)amino)ethoxy)propanoyl)piperazin-1-yl)-2-methylpyrimidin-4-yl)amino)thiazole-5-carboxamide], the IC50 with HEK293 (BCR-ABL-) cells stood at 972 nM; in the assay on U937 (BCR-ABL-) cells, 276 nM; in the assay with K562 (BCR-ABL+) cells it was 2.7 nM. The DC50 on BCR-ABL protein and on c-ABL protein was 1 to 10 nM throughout.

As to `Cc1nc(Nc2ncc(C(=O)Nc3c(C)cccc3Cl)s2)cc(N2CCN(C(=O)CCOCCOCCNc3cccc4c3C(=O)N(C3CCC(=O)NC3=O)C4=O)CC2)n1` (centres unmarked) [SIAIS151064, N-(2-chloro-6-methylphenyl)-2-((6-(4-(3-(2-(2-((2-(2,6-dioxopiperidin-3-yl)-1,3-dioxoisoindolin-4-yl)amino)ethoxy)ethoxy)propanoyl)piperazin-1-yl)-2-methylpyrimidin-4-yl)amino)thiazole-5-carboxamide], the IC50 was greater than 10000 nM in the assay with HEK293 (BCR-ABL-) cells, greater than 10000 nM in the assay with U937 (BCR-ABL-) cells and 8.05 nM with K562 (BCR-ABL+) cells. In addition, the DC50 at BCR-ABL protein fell in the range of 1 to 10 nM; at c-ABL protein, 10 to 100 nM.

For the compound `COc1cc(Nc2c(C#N)cnc3cc(OCCCN4CCN(C(=O)CNc5cccc6c5C(=O)N(C5CCC(=O)NC5=O)C6=O)CC4)c(OC)cc23)c(Cl)cc1Cl` (centres unmarked) [SIAIS151164, 4-((2,4-dichloro-5-methoxyphenyl)amino)-7-(3-(4-((2-(2,6-dioxopiperidin-3-yl)-1,3-dioxoisoindolin-4-yl)glycyl)piperazin-1-yl)propoxy)-6-methoxyquinoline-3-carbonitrile], the DC50 on BCR-ABL protein and on c-ABL protein was 10 to 100 nM in each case.

Take `Cc1ccc(NC(=O)c2ccc(CN3CCN(C(=O)CCOCCOCCOCCOCCC(=O)N[C@H](C(=O)N4C[C@H](O)C[C@H]4C(=O)NCc4ccc(-c5scnc5C)cc4)C(C)(C)C)CC3)cc2)cc1Nc1nccc(-c2cccnc2)n1` [SIAIS1197039, (2S,4R)-1-((S)-2-(tert-butyl)-19-(4-(4-((4-methyl-3-((4-(pyridin-3-yl)pyrimidin-2-yl)amino)phenyl)carbamoyl)benzyl)piperazin-1-yl)-4,19-dioxo-7,10,13,16-tetraoxa-3-azanonadecanoyl)-4-hydroxy-N-(4-(4-methylthiazol-5-yl)benzyl)pyrrolidine-2-carboxamide]: the DC50 at BCR-ABL protein and on c-ABL protein was 1000 nM in each case.
